The source of these data is patent publication US20260055081A1, “Metal Chelator Compounds, Coordination Complexes, and Methods of Preparation and Use Thereof” (University of Puerto Rico, priority 2022, published 2026).

Structures are written as SMILES.

In one test the test system is Jurkat cells. In words: Ferroptosis mechanistic cell viability study (ferrostatin-1). Type of test: cell-based, human. To be noted: 10 μM Fer-1 pretreatment, 2 μM DefNEtTrp, 72 h. Here is the method: Ferroptosis mechanistic cell viability study. Jurkat cells were seeded into 96-well plates, as indicated in the MTT assay described above The cells were treated with 10 μM of the ferroptosis inhibitor ferrostatin-1 (Fer-1). Another group of cells were treated with media alone. After 1 h incubation, half of the cells supplemented with Fer-1 were treated with 2 μM DefNEtTrp or 25 μM [Fe(citrate)2]^5−, as positive control, while the other half was treated with media alone. The final percentage of DMF was maintained at 0.5% (v/v). The MTT assay was performed with these samples (n=6). A student t-test was performed to evaluate the difference in the viability of cells treated with DefNEtTrp or [Fe(citrate)2]^5− and supplemented with and without Fer-1.

Test [1] has as its target T1, Fe(III)-saturated serum transferrin (Fe2-sTf) (Homo sapiens, UniProt P02787).
T1 construct: purchased Sigma T2036
Kind of test: Scavenging of Fe(III) from Fe(III)-saturated serum transferrin. Type of test: biochemical. To be noted: 22.5 μM Fe2-sTf with 45 μM DefNEtTrp, pH 7.4, 25° C., monitored over 3 days. As for the experimental part:
The ability of DefNEtTrp to scavenge Fe(ITT) from Fe(ITI)-saturated serum transferrin(Fe2-sTf) was also examined. Fe2-sTf was prepared by reacting micromolar amounts of apo-sTf with 4 mol equiv of in situ prepared [Fe(citrate)2]^5− in 20 mM Hepes buffer (pH 7.4) containing 0.1 M NaCl and 27 mM NaHCO3. The sample was extensively dialyzed by rapid spin dialysis to remove the excess unbound Fe(III). The Fe(III) content was determined by the ferrozine colorimetric assay modified from a literature protocol and by monitoring the Fe2-STf-(CO3)2 LMCT band (λmax 465 nm; ε=5200 M^−1 cm^−1) (Viollier 2000, The ferrozine method revisited: Fe(II)/Fe(III) determination in natural waters. Appl. Geochem. 15 (6): 785-790). To 22.5 μM Fe2-sTf was reacted 45 μM DefNEtTrp (diluted in the same protein buffer while maintaining 5% DMF) in quadruplicate at 25° C. The reaction solutions were left to equilibrate and the LMCT absorbance was monitored after 24 h and 72 h. The reaction solutions were extensively dialyzed and then the protein concentrations were quantified by the Bradford colorimetric assay. The UV-Vis spectra of the washed protein samples were collected.

For test [2], the system named is MRC-5 noncancer lung cell line. In words: MRC-5 cell viability (MTT assay). The settings on record: concentration range examined, maximum 100 μM; 72 h. Type of test: cell-based, human. Here is the method:
MRC-5 cell viability studies. A thawed stock of MRC-5 cells was washed with 1×PBS and resuspended in phenol red DMEM media (supplemented with 10% FBS and 1% penicillin-streptomycin) and then seeded in a 100 mm×20 mm (complete, O.D.×H) petri dish and grown in a 5% (v/v) CO2 humidified atmosphere at 37° C. At least three passages were performed to ensure the integrity of the cells. After this point, cells were collected, thoroughly washed with 1×PBS, and then resuspended in phenol red-free DMEM (supplemented with 10% FBS, 1% penicillin-streptomycin, and 2.4 mM L-glutamine) at a 2.0×10^5 cells/mL concentration. A volume of 50 μL of cells was seeded into 96-well plates. Cells were incubated for 24 h. Stock solutions of DefNEtTrp were prepared fresh in DMF at concentrations of 20,000, 10,000, 5,000, 2,000, 1000, 200, 80, and 40 μM. The solutions were diluted 100-fold in 1×PBS to obtain a second set of stock solutions with 1% DMF(v/v). The MRC-5 cells were treated with 50 μL of DefNEtTrp compound solution from the second set of stock solutions to obtain final concentrations of 100, 50, 25, 10, 5, 1, 0.4, and 0.2 μM with 0.5% DMF (v/v). Control wells were the same type of controls as in the Jurkat cell work. Cells were incubated for 68 h and the MTT assay was performed exactly as described for the Jurkat cells.
A general note: Tetrazolium dyes change colour on reduction, which living cells bring about.

In test [3] the test system is Prostate cancer cell lines. In words: NCI 60 five-dose screen, prostate panel. Format: cell-based, human. To be noted: 48 h. Here is the method:
National Cancer Institute Cancer Cell Line (NCI 60) Screen of DefNEtTrp. Details of the methodology for NCI 60 cell line screening are described at http://dtp.nci.nih.gov/branches/btb/ivclsp.html. The cells, grown in supplemented RPMI-1640 medium, are seeded in 96 well plates at an appropriate density and incubated for 24 h. The test compounds are dissolved in DMSO and incubated with cells at a single dose of 10.0 μM for 48 h. The assay is terminated by addition of cold trichloroacetic acid, and the cells are fixed and stained with sulforhodamine B. Bound stain is solubilized, and the absorbance is read on an automated plate reader. […] Using the seven absorbance measurements [time zero, […], control growth, (C), and test growth in the presence of drug at the five concentration levels (Tf)], the percentage growth was calculated at each of the drug concentrations levels as: [(Tf−Ti)/(C−Ti)]×100 for concentrations for which Tf≥Ti and [(Tf−Ti)/Ti]×100 for concentrations for which Tf<Ti. Three-dose response parameters (GI50, TGI, and LC50) were calculated for each of the experimental agents in five dose assay. […] The total growth inhibition (TGI) was calculated from Tf=Ti, which was the drug concentration resulting in total growth inhibition and signified the cytostatic effect. […]

T1 sequence (P02787 20-698): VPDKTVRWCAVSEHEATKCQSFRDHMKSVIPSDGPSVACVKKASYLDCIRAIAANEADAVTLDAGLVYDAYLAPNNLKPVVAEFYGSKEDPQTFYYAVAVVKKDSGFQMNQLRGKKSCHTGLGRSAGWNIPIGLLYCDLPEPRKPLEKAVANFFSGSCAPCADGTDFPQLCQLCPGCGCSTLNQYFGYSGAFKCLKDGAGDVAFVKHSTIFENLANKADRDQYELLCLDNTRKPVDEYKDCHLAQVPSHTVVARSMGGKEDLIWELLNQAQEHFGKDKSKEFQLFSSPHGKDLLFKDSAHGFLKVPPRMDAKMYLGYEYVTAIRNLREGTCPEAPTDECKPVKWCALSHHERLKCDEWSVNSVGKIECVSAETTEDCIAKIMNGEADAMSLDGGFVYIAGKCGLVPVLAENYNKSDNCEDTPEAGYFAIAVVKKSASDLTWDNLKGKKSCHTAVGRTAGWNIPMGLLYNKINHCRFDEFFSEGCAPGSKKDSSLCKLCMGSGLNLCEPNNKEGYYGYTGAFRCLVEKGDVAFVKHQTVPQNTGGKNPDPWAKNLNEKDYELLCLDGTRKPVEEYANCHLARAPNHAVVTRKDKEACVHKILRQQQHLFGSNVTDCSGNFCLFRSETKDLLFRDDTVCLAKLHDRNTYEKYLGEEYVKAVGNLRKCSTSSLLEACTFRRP

In general, GI50 refers to the concentration at which growth is held to half of that of the control. On to `Nc1cccnc1/C=N/NC(=S)NCCNC(=O)c1ccc(-n2nc(-c3ccccc3O)nc2-c2ccccc2O)cc1` [DefNEtTrp, deferasirox nitrogen ethyl triapine], for which the “change in cell viability of cells pretreated with Fer-1” value with Jurkat cells was “two-fold increase in the cell viability”. Also, the “removal of Fe(III) from Fe2-sTf (LMCT absorbance 465 nm)” value in test [1] is reported as “no metal dissociation”. Further, in test [2], the “antiproliferative behavior against MRC-5” value is on record as “no antiproliferative behavior”. Further, the “TGI (calculated average)” value in test [3] (cell lines in which TGI was observed) was 18200 nM. Further, the GI50 in test [3] (Homo sapiens, read-out: GI50 (calculated average)) was 1140 nM.
